In patent publication US20070049538A1, “METHODS FOR USING CUCURBITACIN COMPOUNDS” (SOUTH DAKOTA STATE UNIVERSITY, priority 2005, published 2007):

Key:
[1] = test system: HepG2 cells; assay: cells; conditions: for EC50: read-out: EC50 cytoprotection, Table 7, HepG2 against CCl4 toxicity, estimated
Excerpt: Experimental conditions were standardized on silybin. […]
The ratio of IC50-to-EC50 (hereafter T/A) is also indicated in this table, which gives the margin between toxic and cytoprotective concentrations.

[2] = Chromatographic hydrophobicity index (CHI) by RP-HPLC in buffered methanol; assay type: physicochemical; conditions: buffered methanol pH 7.0, Econosil C18 150 mm, Eq. (4)
[3] = Chromatographic hydrophobicity index (CHI) by RP-HPLC in buffered acetonitrile; assay type: physicochemical; set-up: key: CHI = φ0 (isocratic hydrophobicity index), = A·tR + B; ACN % scale; conditions: for CHIACN1: buffered acetonitrile pH 7.0, Alltima C18 250 mm, Eq. (2) from isocratic φ0; for CHIACN2: buffered acetonitrile pH 7.0, Eq. (3) calibrated against published CHI
[4] = test system: HSC-T6 cells; assay: Cytotoxicity on HSC-T6 cells (experiment 3); assay type: cell-based, rat; conditions: read-out: Experiment 3 IC50 (T)
Excerpt: Cytotoxicity of all cucurbitacin analogs was additionally measured in experiment 3 (Table 8).

[5] = test system: HSC-T6 cells; assay: Serum-driven HSC-T6 proliferation, experiment 3 (24 h, proliferating cells); assay type: cell-based, rat; conditions: HSC-T6, 24 h, proliferating cells; read-out: Experiment 3 EC50 (A)
[6] = test system: lipid peroxidation of microsomal suspension; assay: Microsomal Lipid Peroxidation Assay; assay type: biochemical; conditions: at 0.1 mM, both chemical and enzymatic assays
Experimental: Cucurbitacin anti-lipid peroxidation was studied by the Microsomal Lipid Peroxidation Assay (Engineer et al., Biochemical Pharmacology 38(8): 1279-1285, 1989). Lipid peroxidation of microsomal suspension was induced both enzymatically and chemically and validated on the standard compound quercetin. […] Activity of 3 cucurbitacin analogs, B, E, and E-Me-ether was monitored at 0.1 mM indicating no inhibition in either the chemical or enzymatic assay.

| Compound | cytoprotection on HepG2 cells ([1]; at 6.25% of IC50, against CCl4) | cytoprotection on HepG2 cells ([1]; at 12.5% of IC50, against CCl4) | cytoprotection on HepG2 cells ([1]; at 20% of IC50, against CCl4) | cytoprotection on HepG2 cells ([1]; at 50% of IC50, against CCl4) | EC50 [1] | CHIMeOH [2] | CHIACN1 [3] | CHIACN2 [3] | IC50 [4] | EC50 [5] | inhibition of lipid peroxidation [6] |
| --- | --- | --- | --- | --- | --- | --- | --- | --- | --- | --- | --- |
| CC(=O)OC(C)(C)/C=C/C(=O)[C@](C)(O)[C@H]1[C@H](O)C[C@@]2(C)[C@@H]3CC=C4[C@@H](C=C(O[C@@H]5O[C@H](CO)[C@@H](O)[C@H](O)[C@H]5O)C(=O)C4(C)C)[C@]3(C)C(=O)C[C@]12C [E-Gluc, cucurbitacin E glucoside] | −2.36 ± 1.08 | 17.96 ± 1.14 | 49.44 ± 0.29 | 33.92 ± 2.92 | 45.3 µM | 62.27 | 53.98 | 49.13 | 102 µM | 3.28 µM | – |
| cucurbitacin E | 12.41 ± 0.78 | 21.72 ± 0.75 | 49.21 ± 1.73 | 80.55 ± 6.80 | 3.2 µM | 69.6!^ | 75.92 | 83.13 | – | 0.04 µM | no inhibition |
| Cucurbitacin E-Me ether | – | – | – | – | 2.4 µM | 71.55 | 77.84 | 86.09 | 2.8 µM | 0.08 µM | no inhibition |
| CC(=O)OC(C)(C)/C=C/C(=O)[C@](C)(O)[C@H]1[C@H](O)C[C@@]2(C)[C@@H]3CC=C4[C@H](C[C@H](O)C(=O)C4(C)C)[C@]3(C)C(=O)C[C@]12C [B, cucurbitacin B] | 12.45 ± 1.11 | 25.25 ± 1.36 | 34.92 ± 2.76 | 60.01 ± 0.80 | 10.5 µM | 67.33 | 70.93 | 75.40 | 4.4 µM | 0.02 µM | no inhibition |
